From patent US20100196355A1, “Immunophilin Ligands and Methods for Modulating Immunophilin and Calcium Channel Activity” (Wyeth, priority 2007, published 2010)

Key:
[1] = system: cultured rat cortical neurons; assay: Neuronal survival assay (neurofilament ELISA); format: cell-based; settings: cultured rat cortical neurons
Protocol: Cultures were fixed for 30 min with 4% paraformaldehyde at 37° C. Nonspecific binding was blocked by incubating with PBS containing 0.3% Triton X-100 and 5% fetal bovine serum (FBS) for 45 min. Cultures were then incubated overnight at 4° C. with an anti-neurofilament (200 kD) monoclonal antibody (1:1000, clone RT-97, Chemicon, Temecula, Calif.). After washing, a peroxidase-conjugated secondary antibody (1:1000, Vector Labs, Burlingame, Calif.) was applied for 2 h. After three washes, the peroxidase substrate K-BlueMax (Neogen, Lexington, Ky.; Young et al., 1999) was added to the cultures and incubated for 10 min on an orbital shaker. The peroxidase substrate is highly soluble in the K-BlueMax solution. Optical density is then readily measured using a Molecular Devices Spectramax Plus colorimetric plate reader at 650
Briefly, cortical neuron cultures were prepared from embryonic day 15 (E15) rat embryos (Sprague-Dawley, Charles River Laboratories, Wilmington, Mass.). The embryos were collected, their brains were removed, and the cortices were dissected out in ice-cold phosphate-buffered saline (PBS) without Ca^2+ and Mg^2+. Dissected pieces of cortical tissue were pooled together and transferred to an enzymatic dissociation media containing 20 IU/ml papain in Earle's balanced salt solution (Worthington Biochemical, Freehold, N.J.) and incubated for 30 min at 37° C. After enzymatic dissociation, the papain solution was aspirated and the tissue mechanically triturated with a fire-polished Pasteur pipette in complete media [Neurobasal Medium with B-27 supplement (Gibco, Grand Island, N.Y.), 100 IU/ml penicillin, 100 μg/ml streptomycin, 3.3 μg/ml aphidicolin, 0.5 mM glutamate] containing 2,000 IU/ml DNase and 10-mg/ml ovomucoid protease inhibitor.

[2] = system: Ca2+ channel in F-11 cells; assay: Whole-cell patch clamp recording of Ca2+ currents in F-11 cells; format: cell-based, rat and mouse hybrid
Protocol: The whole-cell configuration of the patch-clamp technique was used to record calcium currents from the cells at room temperature using an EPC-9 amplifier (HEKA, Instrutech Corp.) with the acquisition and analysis program Pulse-PulseFit from HEKA (Lambrecht, Germany). Electrodes were fabricated using a P-87 puller (Sutter Instrument). […] The standard bath recording solution is Ca^2+ and Mg^2+ free HBSS (pH 7.4) containing 10 mM HEPES, 10 mM dextrose, and 4 mM BaCl2. Currents were filtered at 3 kHz, and the inward Ca^2+ currents were recorded from cells held at −90 mV with 10 mV depolarizing steps from −80 mV to 60 mV for 50 ms.

[3] = system: rat cortical neuron cultures; assay: Transcriptional profiling of cortical neuron cultures; format: cell-based; settings: 10 μM
Protocol: Cortical neuron cultures were prepared from E16 rat embryos. After plating for 24 hrs, cultures were treated with 10 μM immunophilin ligands and the corresponding vehicle. After treatment for 4 hrs, 12 hrs, 24 hrs and 48 hrs, cells were lysed. Total RNA from each sample was extracted with the RNEASY® Mini Kit (QIAGEN®). Double stranded cDNA was synthesized from 2 μg of each RNA sample using the […]® System (INVITROGEN®), purified, transcribed in vitro to prepare biotinylated cRNA using T7 RNA polymerase in the presence of biotin labeled UTP and CTP. The fragmented cRNAs were hybridized to a Rat Genome 230 2.0 […]® (AFFYMETRIX®, Santa Clara, Calif.) as recommended by the manufacturer. Hybridized arrays were stained according to manufacture protocols on a Fluidics Station 450 and subsequently scanned on an AFFYMETRIX® scanner 3000. The raw data was generated using AFFYMETRIX® MAS 5.0 Software. Transcriptional profiling data were analyzed in Ingenuity.

CO[C@H]1C[C@@H]2CC[C@@H](C)[C@@](O)(O2)C(=O)C(=O)N2CCCCC2C(=O)O[C@H]([C@H](C)C[C@@H]2CC[C@@H](O)[C@H](OC)C2)CC(=O)[C@H](C)/C=C(\C)[C@@H](O)[C@@H](OC)C(=O)[C@H](C)C[C@H](C)C2C=C[C@H](/C=C/1C)ON2c1ccccc1 (some centres unmarked) [Rapamycin analogue I, 9,27-dihydroxy-3-{2-[4-hydroxy-3-methoxycyclohexyl]-1-methylethyl}-10,21-dimethoxy-6,8,12,14,20,26-hexamethyl-37-phenyl-4,9,10,12,13,14,15,18,21,22,23,24,25,26,27,32,33,34,34a-nonadecahydro-3H-23,27-epoxy-18,15-(epoxyimino)pyrido[2,1-c][1,4]oxazacyclohentriacontine-1,5,11,28,29(6H, 31H)-pentone]
neuronal survival, neurofilament ELISA [1]: promote neuronal survival
Ca2+ current density ([2]; 5 μM in the bath for 2 hrs): 3.2+/−0.3 pA/pF
decrease of Ca2+ current density vs vehicle ([2]; 5 μM in the bath for 2 hrs): 49%
whole-cell Ca2+ currents, short bath application ([2]; 10 min application): not affected
reduction of Ca2+ current ([2]; internal application 10 μM, within 10 min, cells responding to BAY-K5552 (L-type)): 46+/−1.8%
reduction of Ca2+ current ([2]; internal application, cells responding to ωCTX MVIIA (N-type)): No significant current reduction
fold change vs DMSO, ACTA1 ([3]; ACTA1): −1.53 fold
fold change vs DMSO, ACTA2 ([3]; ACTA2): 1.41 fold
fold change vs DMSO, AKAP5 ([3]; AKAP5): −2.56 fold
fold change vs DMSO, ASPH ([3]; ASPH): −3.19 fold
fold change vs DMSO, ATP2A2 ([3]; ATP2A2): 1.85 fold
fold change vs DMSO, ATP2B1 ([3]; ATP2B1): 1.53 fold
fold change vs DMSO, ATP2B3 ([3]; ATP2B3): −1.54 fold
fold change vs DMSO, ATP2C1 ([3]; ATP2C1): −1.38 fold
fold change vs DMSO, CABIN1 ([3]; CABIN1): 1.33 fold
fold change vs DMSO, CACNA1B ([3]; CACNA1B): −1.77 fold
fold change vs DMSO, CACNA1C ([3]; CACNA1C): 1.48 fold
fold change vs DMSO, CACNA1D ([3]; CACNA1D): −1.72 fold
fold change vs DMSO, CACNA2D1 ([3]; CACNA2D1): 3.47 fold
fold change vs DMSO, CACNB1 ([3]; CACNB1): −1.32 fold
fold change vs DMSO, CACNG2 ([3]; CACNG2): −1.8 fold
fold change vs DMSO, CACNG3 ([3]; CACNG3): −3.73 fold
fold change vs DMSO, CALM1 ([3]; CALM1): −1.74 fold
fold change vs DMSO, CALM2 ([3]; CALM2): −1.22 fold
fold change vs DMSO, CALM3 ([3]; CALM3): −1.34 fold
fold change vs DMSO, CALR ([3]; CALR): 1.18 fold
fold change vs DMSO, CAMK1 ([3]; CAMK1): −1.6 fold
fold change vs DMSO, CAMK1G ([3]; CAMK1G): −2.47 fold
fold change vs DMSO, CAMK2A ([3]; CAMK2A): −2.03 fold
fold change vs DMSO, CAMK2B ([3]; CAMK2B): −1.82 fold
fold change vs DMSO, CAMK2D ([3]; CAMK2D): −1.45 fold
fold change vs DMSO, CAMK4 ([3]; CAMK4): −1.42 fold
fold change vs DMSO, CHP ([3]; CHP): 1.65 fold
fold change vs DMSO, CREBBP ([3]; CREBBP): 4.14 fold
fold change vs DMSO, CYP27B1 ([3]; CYP27B1): −1.27 fold
fold change vs DMSO, DHCR7 ([3]; DHCR7): 1.84 fold
fold change vs DMSO, DSCR1 ([3]; DSCR1): −1.93 fold
fold change vs DMSO, DSCR1L1 ([3]; DSCR1L1): −4.44 fold
fold change vs DMSO, EBP ([3]; EBP): 1.45 fold
fold change vs DMSO, FDFT1 ([3]; FDFT1): 1.94 fold
fold change vs DMSO, FDPS ([3]; FDPS): 2.34 fold
fold change vs DMSO, GRIA1 ([3]; GRIA1): −2.78 fold
fold change vs DMSO, GRIA2 ([3]; GRIA2): 2.74 fold
fold change vs DMSO, GRIN1 ([3]; GRIN1): −2.41 fold
fold change vs DMSO, GRIN2B ([3]; GRIN2B): −1.94 fold
fold change vs DMSO, GRIN3A ([3]; GRIN3A): −1.84 fold
fold change vs DMSO, GRINA ([3]; GRINA): −1.21 fold
fold change vs DMSO, HDAC5 ([3]; HDAC5): 1.78 fold
fold change vs DMSO, HDAC6 ([3]; HDAC6): −1.18 fold
fold change vs DMSO, HDAC7A ([3]; HDAC7A): 1.24 fold
fold change vs DMSO, HMGCR ([3]; HMGCR): 2.24 fold
fold change vs DMSO, HTR3A ([3]; HTR3A): −1.57 fold
fold change vs DMSO, IDI1 ([3]; IDI1): 3.24 fold
fold change vs DMSO, ITPR3 ([3]; ITPR3): −1.85 fold
fold change vs DMSO, LSS ([3]; LSS): 13.3 fold
fold change vs DMSO, MAPK1 ([3]; MAPK1): 1.29 fold
fold change vs DMSO, MAPK3 ([3]; MAPK3): −1.31 fold
fold change vs DMSO, MVD ([3]; MVD): 1.94 fold
fold change vs DMSO, MVK ([3]; MVK): 1.6 fold
fold change vs DMSO, MYH1 ([3]; MYH1): −2.18 fold
fold change vs DMSO, MYH6 ([3]; MYH6): −7.18 fold
fold change vs DMSO, MYH7 ([3]; MYH7): −6.11 fold
fold change vs DMSO, MYL6B ([3]; MYL6B): −1.69 fold
fold change vs DMSO, NQO1 ([3]; NQO1): 1.8 fold
fold change vs DMSO, PMVK ([3]; PMVK): 1.33 fold
fold change vs DMSO, PPP3CB ([3]; PPP3CB): −1.3 fold
fold change vs DMSO, PPP3CC ([3]; PPP3CC): −1.18 fold
fold change vs DMSO, PPP3R1 ([3]; PPP3R1): −1.49 fold
fold change vs DMSO, PRKAG1 ([3]; PRKAG1): −1.21 fold
fold change vs DMSO, PRKAR1A ([3]; PRKAR1A): 1.08 fold
fold change vs DMSO, PRKAR1B ([3]; PRKAR1B): −3.36 fold
fold change vs DMSO, PRKAR2A ([3]; PRKAR2A): −1.56 fold
fold change vs DMSO, PRKAR2B ([3]; PRKAR2B): −1.56 fold
fold change vs DMSO, RAP1B ([3]; RAP1B): −1.29 fold
fold change vs DMSO, SC5DL ([3]; SC5DL): 2.01 fold
fold change vs DMSO, SQLE ([3]; SQLE): 1.92 fold
fold change vs DMSO, TPM1 ([3]; TPM1): −2.55 fold
fold change vs DMSO, TPM3 ([3]; TPM3): −2.04 fold
fold change vs DMSO, TRPC1 ([3]; TRPC1): −1.21 fold
fold change vs DMSO, TRPC3 ([3]; TRPC3): −2.4 fold
fold change vs DMSO, TRPC4 ([3]; TRPC4): −4.56 fold
fold change vs DMSO, TRPV6 ([3]; TRPV6): 1.65 fold
fold change, PLAU ([3]; plasminogen activator (PLAU)): −40 fold
